Experimental data reported in patent publication US8501793B2, “Blood flow promoters for cauda equina tissues” (Ono Pharmaceutical Co., Ltd., priority 2003, dated 2013).

Tested on: rat
Experiment: measurement of the cauda equina blood flow and the blood pressure in urethane-anesthetized rat
Assay type: in vivo
Details: continuous infusion through caudal vein for 30 minutes, dose not given; for the increase rate of the cauda equina blood flow: observed until 30 minutes after, laser-Doppler flowmetry; for decrease of the blood pressure: systemic blood pressure from left carotid artery
Method: The common procedure based on the fundamental biological means was used as all procedures. Furthermore, the measuring method of the present invention was modified to improve the accuracy and/or sensitivity of measurement for evaluating the compound of the present invention. The detailed experimental method was as follows. • (i) The measurement of the cauda equina blood flow and the blood pressure Experiment: 1.5g/kg of urethane was administered intraperitoneally to the rat to be anesthetized, and the catheter, which is for measurement of blood pressure and ventricular rate, was placed in left carotid artery in supine position. The rat was reversed to prone position and the lumbar part was incised in the median line. The laminectomy was given to the fifth lumbar vertebra and the spinal cord (cauda equina) was exposed. The cauda equina blood flow was measured by the laser-Doppler flowmetry (OMEGAFLD FLO-NI and ADVANCE LASER FLOWMETER ALF21N, OMEGA WAVE Inc.) through a noncontact probe (ST-N type, OMEGA WAVE Inc.) and recorded with LINEARCORDER (Graphtech). The systemic blood pressure and the ventricular rate were measured from a left carotid artery with amplifier for the pressure measurement (GOULD) through a pressure transducer and recorded with LINEARCORDER (Graphtech).
After confirming each parameter of blood pressure, ventricular rate and blood flow was stabilized, the test compound was administrated by continuous infusion through the winged needle placed in caudal vein for 30 minutes. It observed until 30 minutes after the administration and the increase rate of the cauda equina blood flow was calculated. The increase rate of the cauda equina blood flow (%)=(B−A)/A×100 • A: the cauda equina blood flow before the administration of the test compound • B: the cauda equina blood flow after the administration of the test compound

## O=C(O)c1csc(SCCN2C(=O)OC[C@@H]2/C=C/[C@@H](O)C2(CCCCF)CCC2)n1 [compound 8-1, 2-{[2-((4S)-4-{(1E,3R)-3-[1-(4-fluorobutyl)cyclobutyl]-3-hydroxy-1-propenyl}-2-oxo-1,3-oxazolidin-3-yl)ethyl]sulfanyl}-1,3-thiazole-4-carboxylic acid]
  the increase rate of the cauda equina blood flow: 35%
  decrease of the blood pressure: 6 mmHg

## CC(O)(C/C=C/[C@H]1CCC(=O)[C@@H]1CCSc1nc(C(=O)O)cs1)CC1CCCCC1 (stereo partly drawn) [compound 53, 2-[(2-{(1R,2R)-2-[(1E)-5-cyclohexyl-4-hydroxy-4-methyl-1-pentenyl]-5-oxocyclopentyl}ethyl)sulfanyl]-1,3-thiazole-4-carboxylic acid]
  the increase rate of the cauda equina blood flow: 31%
  decrease of the blood pressure: 10 mmHg
